Values after ≈ are worked out from the molar mass of the structure shown.
Experiments:
[1] = tested on: MRSA USA400; assay: Time-kill assay against MRSA USA400; settings: 4 × MIC; for kill kinetics (in words): MRSA USA400
[2] = tested on: human colorectal cells (HRT-18); assay: Cytotoxicity against human colorectal; settings: HRT-18 cells, two hours, MTS; tested 16, 32, 64 μg/mL
[3] = tested on: MRSA USA400 inside infected macrophage (J774) cells; assay: Clearance of intracellular MRSA in infected J774 macrophages; assay type: cell-based, Staphylococcus aureus; settings: 24 hours
[4] = tested on: murine macrophage (J774) cells; assay: Cytotoxicity against J774 macrophage cells; assay type: cell-based; settings: 24-hour incubation, MTS, tested 8, 16, 32 μg/mL
[5] = molecular target: T1, human FPPS (HsFPPS) (Homo sapiens, UniProt P14324); assay: Human FPPS inhibition; assay type: biochemical; settings: data not shown
T1 sequence (P14324 1-419): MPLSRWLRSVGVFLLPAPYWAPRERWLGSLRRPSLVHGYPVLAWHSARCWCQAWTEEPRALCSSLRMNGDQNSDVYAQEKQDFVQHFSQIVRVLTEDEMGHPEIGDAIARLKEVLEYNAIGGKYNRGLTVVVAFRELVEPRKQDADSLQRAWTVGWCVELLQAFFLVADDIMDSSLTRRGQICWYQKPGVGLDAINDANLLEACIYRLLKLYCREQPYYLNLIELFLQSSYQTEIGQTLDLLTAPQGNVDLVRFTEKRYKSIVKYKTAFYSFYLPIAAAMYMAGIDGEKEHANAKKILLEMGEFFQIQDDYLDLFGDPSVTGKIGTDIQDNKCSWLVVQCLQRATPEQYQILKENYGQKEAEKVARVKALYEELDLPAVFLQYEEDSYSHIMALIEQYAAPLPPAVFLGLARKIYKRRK

[6] = tested on: Caco-2 cells; assay: Caco-2 bidirectional permeability assay; assay type: in vitro ADME, human
[7] = Metabolic stability in pooled human liver microsomes; assay type: in vitro ADME; settings: for Notes (metabolic stability classification): HLM
[8] = In vivo pharmacokinetics in rat, single IV bolus; set-up: species or system Sprague-Dawley rats; settings: male, Sprague-Dawley, plasma, 2 μM solution, t1/2, rat, two-compartment model
[9] = tested on: PMF in E. coli inverted membrane vesicles (IMVs); assay: IMV protonophore uncoupler assay
[10] = tested on: VRS11a (VRSA); assay: Broth microdilution MIC/MBC against VRS11a; assay type: cell-based; settings: Staphylococcus aureus
[11] = tested on: MRSA USA300; assay: Time-kill assay against MRSA USA300; settings: 4 × MIC
[12] = human, pooled human liver microsomes, pH 7.4

SMILES: C/C(=N\NC(=N)N)c1sc(-c2ccc(C#Cc3ccccc3)cc2)nc1C [Compound 5]
- kill kinetics (in words) [1]: bacteriostatic
- non-toxic up to (concentration) [2]: 32 µg/mL

SMILES: C/C(=N\NC(=N)N)c1sc(-c2ccc(C#CC3CCCCC3)cc2)nc1C [Compound 6, 2-(1-(2-(4-(Cyclohexylethynyl)phenyl)-4-methylthiazol-5-yl)ethylidene)hydrazine-1-carboximidamide]
- reduction of the burden of intracellular MRSA ([3]; 16 μg/mL): neither the alicyclic-containing derivatives 6, 7 or 9 (4 × MIC) nor vancomycin (4 × MIC) were able to produce a significant reduction
- non-toxic up to (concentration) [2]: 32 µg/mL

SMILES: C/C(=N\NC(=N)N)c1sc(-c2ccc(C#CC3CCCC3)cc2)nc1C [Compound 7, 2-{1-[2-(4-(Cyclopentylethynyl)phenyl)-4-methylthiazol-5-yl]ethylidene} hydrazine-1-carboximidamide]
- non-toxic to macrophage cells up to a concentration of [4]: 8 µg/mL
- reduction of the burden of intracellular MRSA ([3]; 8 μg/mL (4 × MIC)): neither the alicyclic-containing derivatives 6, 7 or 9 (4 × MIC) nor vancomycin (4 × MIC) were able to produce a significant reduction
- reduction in MRSA CFU/mL after 8 hours ([1]; 8 hours, re-growth thereafter): ~3 log10
- non-toxic up to (concentration) [2]: 32 µg/mL

SMILES: C/C(=N\NC(=N)N)c1sc(-c2ccc(C#CC3CC3)cc2)nc1C [Compound 9, 2-(1-(2-(4-(Cyclopropylethynyl)phenyl)-4-methylthiazol-5-yl)ethylidene) hydrazine-1-carboximidamide]
- non-toxic to macrophage cells up to a concentration of [4]: 8 µg/mL
- reduction of the burden of intracellular MRSA ([3]; 8 μg/mL (4 × MIC)): neither the alicyclic-containing derivatives 6, 7 or 9 (4 × MIC) nor vancomycin (4 × MIC) were able to produce a significant reduction
- inhibition of HsFPPS [5]: no inhibition
- Notes (permeability classification) [6]: Low permeability
- Notes (metabolic stability classification) [7]: Stable to metabolism
- half-life at 0.1 μM [7, 12]: 4.8 h
- microsomal CLint at 0.1 μM [7, 12]: < 116 µL/min/mg
- half-life [8]: ~4.5 h
- time to complete eradication of MRSA USA400 [1]: 24 h
- kill kinetics (in words) [1]: slow bactericidal activity
- non-toxic up to (concentration) [2]: 32 µg/mL
- EC50 for PMF collapse (corresponding mass concentration) ([9]; ATP-powered PMF generation): 8 µg/mL
- EC50 for PMF collapse (corresponding mass concentration) ([9]; succinate/O2-powered PMF generation): 9.5 µg/mL

SMILES: CCCC#Cc1ccc(-c2nc(C)c(/C(C)=N/NC(=N)N)s2)cc1 [Compound 10, 2-(1-(4-Methyl-2-(4-(pent-1-yn-1-yl)phenyl)thiazol-5-yl)ethylidene)hydrazine-1-carboximidamide]
- MIC [10]: 0.5 µg/mL (≈ 1.47 µM)
- non-toxic to macrophage cells up to a concentration of [4]: 16 µg/mL
- reduction of the burden of intracellular MRSA ([3]; 16 μg/mL): complete eradication
- kill kinetics (in words) [11]: rapid bactericidal activity
- non-toxic up to (concentration) [2]: 32 µg/mL

SMILES: CCCCCC#Cc1ccc(-c2nc(C)c(/C(C)=N/NC(=N)N)s2)cc1 [Compound 11, 2-(1-(2-(4-(Hep-1-yn-1-yl)phenyl)-4-methylthiazol-5-yl)ethylidene)hydraz-ine-1-carboximidamide]
- non-toxic to macrophage cells up to a concentration of [4]: 16 µg/mL
- reduction of the burden of intracellular MRSA ([3]; 16 μg/mL): complete eradication
- kill kinetics (in words) [11]: rapid bactericidal activity
- non-toxic up to (concentration) [2]: 32 µg/mL

SMILES: CCCCCCC#Cc1ccc(-c2nc(C)c(/C(C)=N/NC(=N)N)s2)cc1 [Compound 12]
- non-toxic up to (concentration) [2]: 32 µg/mL

SMILES: C/C(=N\NC(=N)N)c1sc(-c2ccc(C#CC(C)(C)C)cc2)nc1C [Compound 13, 2-(1-(2-(4-(3,3-Dimethylbut-1-yn-1-yl)-phenyl)-4-methylthiazol-5-yl)ethylidene) hydrazine-1-carboximidamide]
- non-toxic up to (concentration) [2]: 32 µg/mL

SMILES: C/C(=N\NC1=NCCN1)c1sc(-c2ccc(C#CC3CC3)cc2)nc1C [Compound 19, 2-(4-(Cyclopropylethynyl)phenyl)-5-(1-(2-(4,5-dihydro-1H-imidazol-2-yl)hydrazono)ethyl)-4-methylthiazole]
- Notes (metabolic stability classification) [7]: Stable to metabolism

SMILES: C/C(=N\NC1=NCCN1)c1sc(-c2ccc(C#CC(C)(C)C)cc2)nc1C [Compound 23, 5-(1-(2-(4,5-Dihydro-1H-imidazol-2-yl)hydrazono)ethyl)-2-(4-(3,3-dimethylbut-1-yn-1-yl)phenyl)-4-methylthiazole]
- non-toxic up to (concentration) [2]: 32 µg/mL

SMILES: CN[C@H](CC(C)C)C(=O)N[C@H]1C(=O)N[C@@H](CC(N)=O)C(=O)N[C@H]2C(=O)N[C@H]3C(=O)N[C@H](C(=O)N[C@H](C(=O)O)c4cc(O)cc(O)c4-c4cc3ccc4O)[C@H](O)c3ccc(c(Cl)c3)Oc3cc2cc(c3O[C@@H]2O[C@H](CO)[C@@H](O)[C@H](O)[C@H]2O[C@H]2C[C@](C)(N)[C@H](O)[C@H](C)O2)Oc2ccc(cc2Cl)[C@H]1O [Vancomycin, reference compound]
- time to complete eradication of MRSA USA400 [1]: 24 h
